In patent US20030013658A1, “Small peptides and methods for treatment of asthma and inflammation” (Hisatek, LLC, priority 1997, published 2003):
Where no end group is shown, it is not given here. The star is where a group is joined. For = O=C*

How the values were obtained:
[1] = test system: induced type II collagen arthritis; assay: Induced type II collagen arthritis mouse model; format: in vivo; conditions: HK-X TC or footpad, 0.4 or 4 mg/kg for 20 days; method written in present tense
Excerpt: A mouse model is used to evaluate the effect of the compounds of the present invention on the histological, radiographic and clinical appearance of induced type II collagen arthritis. Mice: DBA/1(2) male mice weighing 25 gms (Jackson Laboratories, Bar Harbor, Me. or B&K Universal, Kent Wash.) are used for this work. This strain of mouse is susceptible to CIA by the injection of heterologous type II collagen. Bovine Collagen (BC), Complete Freund's Adjuvant (CFA) and Incomplete Freund's Adjuvant (ICFA) can be obtained from Sigma Chemical. Antigen for immunization is processed in 0.1 M acetic acid and formulated with CFA or ICFA. […] The degree of cellularity and areas of inflammation are quantified by using digitization of histological photomicrographs and applying standard area and point counting techniques as described above. […] The average area of soft tissue (pannus) of the joint is determined by analysis of computer digitized radiographs, along with changes in density of the adjacent hard tissues by comparison with internal standards included with each radiograph. […] The significance of the differences in density and area for control and experimental mice is assessed using paired T-tests at each time point. […] Swelling of hind paws is also quantitated by measuring the thickness of the ankle from the medial to the lateral malledus with a constant tension caliper. […]

[2] = test system: mast cell degranulation induced by Compound 48/80; assay: Rat skin model: inhibition of Compound 48/80-induced mast cell degranulation (capillary permeability, trypan blue); format: in vivo; conditions: 0.15 μg Compound 48/80
Description: The Rat Skin Model for Determination of Inhibition of Mast Cell Degranulation
In this model, the blood plasma of the experimental rat is labeled with the dye trypan blue. This soluble dye is carried in the bloodstream as a passive marker of plasma itself, and is excluded from live cells. Intact blood vessels, including the capillary system, retain this dye under normal circumstances. A compound, which induces degranulation of mast cells (resulting in leukotriene and histamine release), is injected into the skin to simulate allergen-induced degranulation. In these experiments, Compound 48/80 was used for this purpose. In the events following leukotriene and histamine release, capillary permeability is increased, and plasma, dyed blue, leaks from capillaries and dyes the skin surrounding the injection site blue. The area of bluing is a measure of the amount of Compound 48/80 injected.
A compound can be tested for “anti-leukotriene” and/or “anti-histamine” activity by mixing it with Compound 48/80 prior to injection.
The rat skin model was undertaken and validated. Various peptides were tested at a predetermined dose for anti-leukotriene and/or anti-histamine activity. The dose selected allowed a general comparison to f-Met-Leu-Phe, which was standard compound for comparison.
A “dose response” titration was performed for some compounds and compared with the standard compound. Observing serial decreases in the size areas of capillary permeability using serially smaller doses of the putative inhibitory compound validates the inhibition of leukotriene and/or histamine release observed in the initial predetermined dose test.
Reagents were obtained from Sigma or Aldrich, with the exception of ketamine, a veterinary anaesthetic that was obtained from various veterinary suppliers. The rats used were male Sprague-Dawley breed, 220-240 g at time of purchase from B&K International.
For the rat skin reaction, rats were anaesthetized with 0.25 ml 10 mg/ml ketamine. 1.0 ml trypan blue in saline (sterile filtered) was administered in a tail vein, and the back of the rat was shaved. Four intradermal injection sites per rat were used for test and control injections.
Compound 48/80 was prepared as a 1.5 mg/ml stock solution in saline. […] Serial dilutions in saline to working levels were prepared just prior to injection of each rat.
Peptides were prepared as a 23 mM stock solution in DMSO, and stored at −20° C. between experiments. At the time of use, the frozen stock solutions were thawed, and appropriate aliquots added to dilutions of Compound 48/80, along with appropriate amounts of DMSO, to result in the ratio of 5 μl DMSO to 0.1 ml aqueous Compound 48/80.
For injections, 0.1 ml […], +1/− test compounds were injected intradermally into anaesthetized, dyed, and shaved rats. Following a 15 minute incubation, the rats were sacrificed by cervical dislocation and the back skin was evulsed and placed on a light box. An image of the backlit skin was digitized using a CCD video capture camera and compatible hardware/software. The digitized image was analyzed using a scientific graphics analysis software package, and the areas of capillary permeability (bluing) were integrated and digital values were obtained for further analysis.
A dose response curve was generated using Compound 48/80 at various doses from ca. 0.01 μg through ca. 15 μg. […] A dose of 0.15 μg of Compound 48/80 was selected for conducting further tests.
Several f-Met-Leu peptides were tested for inhibition of induced degranulation in the rat skin model using 100 nanomoles of the test peptide and a dose of 0.15 μg Compound 48/80. An intrinsic zero-peptide-dose 48/80 control was included in each rat for each experiment, and the % of inhibition was expressed in relative terms to this control (0% inhibition). The percent mast cell degranulation produced by 48/80 was also determined.

## f-Met-Leu-Phe-Phe (For-MLFF) [Example 9]
[1]
  degree of arthritis: found to reduce the degree of arthritis
[2]; dose response
  inhibition of induced degranulation compared with standard f-Met-Leu-Phe: unexpectedly substantially better than that of the standard compound f-Met-Leu-Phe
[2]; doses of 0 to about 230 nM peptide, FIG. 2 / FIG. 3
  dose response, inhibition of degranulation induced by Compound 48/80: Surprisingly remarkable inhibition of degranulation induced by Compound 48/80 was clearly shown
[2]; percent mast cell degranulation produced by 48/80, 100 nanomoles peptide
  % Degranulation: 1-3%
